Measured values: patent US20250282785A1, “PYRROLIDINONE DERIVATIVES AS INHIBITORS OF NF KAPPA B INDUCING KINASE” (priority 2022, published 2025)

What was measured:
[1] = tested on: p-IKKα levels in L363 (NIK translocated multiple myeloma) cells; assay: Effect of compounds on p-IKKα levels in L363 cells (AlphaLISA SureFire Ultra); type: cell-based; conditions: Homo sapiens, L-363; L363 cells, BAFF stimulated, MG132, 6 h; average of values; read-out: Assay 2 IC50
Procedure: Biological Assay 2: Effect of Compounds on p-IKKα Levels in L363 (NIK Translocated Multiple Myeloma) Cells
All compounds tested were dissolved and serially diluted in DMSO, 1:3 dilution for 11 points in an Echo compatible plate. 100% DMSO is added to columns 12 and 24 of the plate to serve as high and low signal controls. This compound plate was used to spot 20 nl of compound or DMSO into a Greiner 384 well TC plate (781080). Final DMSO concentration was […] (v/v) in cell assays. Human L363 cells (ATCC) were cultured in RPMI 1640 medium supplemented with GlutaMax, non-essential amino acids, sodium pyruvate and 10% fetal bovine serum. Cells were routinely maintained at densities of 0.2×10^6 cells per ml −2×10^6 cells per ml at 37° C. in a humidified 5% CO2 atmosphere incubator. Cells were passaged twice a week splitting back to obtain the low density. The day before the assay, cells were washed twice in HBSS, resuspended in DMEM+0.5% IgG and protease free BSA (Jackson Immuno Research Laboratories), +/−250 ng/ml recombinant human B-cell activating factor (BAFF/BLyS/TNFSF13B) and incubated overnight at 37° C. in a humidified 5% CO2 atmosphere (bulk stimulation with or without BAFF). The next day, cell concentration was adjusted to 1×10^7 cells/ml in DMEM+/−250 ng/ml BAFF+/−10 uM MG132 and plated at 10 ul/well into compound or DMSO spotted 384 well TC plates. Seeded cells were incubated at 37° C. in a humidified 5% CO2 atmosphere for 6 h. After 6 h, plates were removed from the incubator and cell lysis was achieved by the addition of 2.5 μl 5× lysis buffer containing protease and phosphatase inhibitors, followed by shaking on a plate shaker at room temperature for 15 min. At the end of this incubation, lysed cells were sequentially treated and incubated with acceptor and donor bead mixes according to the manufacturer's protocol for a 1 plate/2-incubation suspension cell assay (AlphaLISA SureFire Ultra p-IKKα (Ser 176/180) Assay Kit (Perkin ElmeR). Plates were read using an EnVision® Multilabel Plate Reader (Perkin ElmeR). Within an experiment, a concentration response curve for each compound was run in duplicate. Signal obtained in the test wells was normalized using high signal (BAFF stimulated cells, DMSO, MG132) and low signal (unstimulated cells, DMSO) controls. To determine the IC50, a sigmoidal curve was fitted to the plot of % inhibition versus Log10 compound concentration.

[2] = target: Recombinant Human NF-Kappab-Inducing Kinase (NIK/MAP3K14) (Homo sapiens, UniProt Q99558); assay: Inhibition of auto-phosphorylation of recombinant human NIK/MAP3K14 (AlphaScreen); type: biochemical; conditions: NIK/MAP3K14 auto-phosphorylation, 5 microM ATP, 1 nM enzyme, 2 h at 25° C.; average of values; read-out: Assay 1 IC50
Procedure: Biological Assay 1: Inhibition of Auto-Phosphorylation of Recombinant Human NF-Kappab-Inducing Kinase (NIK/MAP3K14) Activity (AlphaScreen®)
NIK/MAP3K14 auto-phosphorylation activity was measured using the AlphaScreen® ((αscreen) format (Perkin ElmeR). All compounds tested were dissolved in dimethyl sulfoxide (DMSO) and further dilutions were made in assay buffer. Final DMSO concentration was 0.7% (v/v) in assays. Assay buffer was 50 mM Tris pH 7.5 containing 1 mM EGTA (ethylene glycol tetraacetic acid), 1 mM DTT (dithiothreitol), 0.1 mM Na3VO4, 5 mM MgCl2, 0.01% Tween® 20. Assays were carried out in 384 well Proxiplates (Perkin ElmeR). Incubations consisted of compound, 5 microM Adenosine-5′-triphosphate (ATP), and 1 nM NIK/MAP3K14. Incubations were initiated by addition of GST-tagged NIK/MAP3K14 enzyme, carried out for 2 h at 25° C. and terminated by addition of stop buffer containing anti-phospho-IKK Ser176/180 antibody. Protein A Acceptor and Glutathione-donor beads were added before reading using an EnVision® Multilabel Plate Reader (Perkin ElmeR). Signal obtained in the wells was normalized using high (full enzyme activity, 0.7% DMSO) and low controls (no enzyme activity, 0.7% DMSO, no ATP). IC50's were determined by fitting a sigmoidal curve to % inhibition of control versus Log10 compound concentration.

Sequence of Recombinant Human NF-Kappab-Inducing Kinase (NIK/MAP3K14) (Q99558 whole entry): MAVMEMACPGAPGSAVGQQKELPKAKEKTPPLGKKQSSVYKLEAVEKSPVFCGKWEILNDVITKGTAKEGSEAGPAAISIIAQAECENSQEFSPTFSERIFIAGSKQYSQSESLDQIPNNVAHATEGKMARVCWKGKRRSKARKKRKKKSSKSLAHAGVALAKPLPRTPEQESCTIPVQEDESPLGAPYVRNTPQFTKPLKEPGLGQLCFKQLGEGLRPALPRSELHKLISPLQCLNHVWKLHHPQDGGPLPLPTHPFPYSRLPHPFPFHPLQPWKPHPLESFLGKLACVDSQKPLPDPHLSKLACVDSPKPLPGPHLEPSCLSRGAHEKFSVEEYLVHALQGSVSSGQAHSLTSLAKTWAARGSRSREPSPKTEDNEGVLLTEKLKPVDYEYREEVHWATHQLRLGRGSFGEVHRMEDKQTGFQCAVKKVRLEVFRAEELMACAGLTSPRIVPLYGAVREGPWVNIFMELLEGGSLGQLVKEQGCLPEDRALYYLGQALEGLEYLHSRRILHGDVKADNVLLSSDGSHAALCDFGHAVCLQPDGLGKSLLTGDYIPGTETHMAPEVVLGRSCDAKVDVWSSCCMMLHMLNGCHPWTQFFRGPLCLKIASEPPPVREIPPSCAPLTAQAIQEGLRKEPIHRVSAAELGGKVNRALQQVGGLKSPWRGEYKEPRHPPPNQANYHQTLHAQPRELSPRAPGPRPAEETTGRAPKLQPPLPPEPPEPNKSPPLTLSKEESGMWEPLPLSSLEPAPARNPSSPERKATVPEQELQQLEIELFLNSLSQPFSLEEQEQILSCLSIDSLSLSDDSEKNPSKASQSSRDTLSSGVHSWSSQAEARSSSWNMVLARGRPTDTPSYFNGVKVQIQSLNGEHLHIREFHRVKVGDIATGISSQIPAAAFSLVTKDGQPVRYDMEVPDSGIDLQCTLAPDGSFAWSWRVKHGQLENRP

Structure (SMILES)	IC50 [1]	IC50 [2]
CN1CC[C@@](O)(c2cc(-c3cccc(-c4ccnc(C(N)=O)n4)c3)no2)C1=O [Example 162, (R)-4-(3-(5-(3-Hydroxy-1-methyl-2-oxopyrrolidin-3-yl)isoxazol-3-yl)phenyl)pyrimidine-2-carboxamide]	> 501 nM	< 100 nM
CN1CC[C@@](O)(c2cc(-c3cccc(-c4cc(C(F)(F)F)c(N)c(C(N)=O)n4)c3)no2)C1=O [Example 50, (R)-3-Amino-6-(3-(5-(3-hydroxy-1-methyl-2-oxopyrrolidin-3-yl)isoxazol-3-yl)phenyl)-4-(trifluoromethyl)picolinamide]	< 100 nM	< 100 nM
COc1cc(-c2cc(-c3cc([C@]4(O)CCN(C)C4=O)on3)c(F)cc2F)nc2c(N)ncnc12 [Example 113, (R)-3-(3-(5-(4-Amino-8-methoxypyrido[3,2-d]pyrimidin-6-yl)-2,4-difluorophenyl)isoxazol-5-yl)-3-hydroxy-1-methylpyrrolidin-2-one]	> 501 nM	< 100 nM
CN1CC[C@@](O)(c2cc(-c3cccc(-c4cccc5c(=O)[nH]ccc45)n3)no2)C1=O [Example 196, (R)-5-(6-(5-(3-Hydroxy-1-methyl-2-oxopyrrolidin-3-yl)isoxazol-3-yl)pyridin-2-yl)isoquinolin-1(2H)-one]	> 501 nM	< 100 nM
COc1cc2c(cc1-c1cccc(-c3cc([C@]4(O)CCN(C)C4=O)on3)c1)COC2 [Example 81, (R)-3-Hydroxy-3-(3-(3-(6-methoxy-1,3-dihydroisobenzofuran-5-yl)phenyl)isoxazol-5-yl)-1-methylpyrrolidin-2-one]	> 501 nM	> 501 nM
CN1CC[C@@](O)(c2cc(-c3cccc(-c4ncc(N[C@H]5CCOC5)c(C(N)=O)n4)c3)no2)C1=O [Example 127, 2-(3-(5-((R)-3-hydroxy-1-methyl-2-oxopyrrolidin-3-yl)isoxazol-3-yl)phenyl)-5-(((S)-tetrahydrofuran-3-yl)amino)pyrimidine-4-carboxamide]	< 100 nM	< 100 nM
CN1CC[C@](O)(c2cc(-c3cccc(-c4cccc(C(N)=O)n4)c3)no2)C1=O [Example 149, (S)-6-(3-(5-(3-Hydroxy-1-methyl-2-oxopyrrolidin-3-yl)isoxazol-3-yl)phenyl)picolinamide]	> 501 nM	> 501 nM
COCCn1cc(-c2cc(C(N)=O)nc(-c3cccc(-c4cc([C@]5(O)CCN(C)C5=O)on4)c3)c2)cn1 [Example 189, (R)-6-(3-(5-(3-Hydroxy-1-methyl-2-oxopyrrolidin-3-yl)isoxazol-3-yl)phenyl)-4-(1-(2-methoxyethyl)-1H-pyrazol-4-yl)picolinamide]	100 to 500 nM	< 100 nM
CN1CC[C@@](O)(c2cc(-c3cccc(-c4nc5c(N)ncnc5s4)c3)no2)C1=O [Example 13, (R)-3-(3-(3-(7-Aminothiazolo[5,4-d]pyrimidin-2-yl)phenyl)isoxazol-5-yl)-3-hydroxy-1-methylpyrrolidin-2-one]	> 501 nM	< 100 nM
[2H]c1nc(N)c2nc(-c3cccc(-c4cc([C@]5(O)CCN(C)C5=O)on4)c3)ccc2n1 [Example 2, (R)-3-(3-(3-(4-Aminopyrido[3,2-d]pyrimidin-6-yl-2-d)phenyl)isoxazol-5-yl)-3-hydroxy-1-methylpyrrolidin-2-one]	100 to 500 nM	< 100 nM
Cc1ccc(-c2cc([C@]3(O)CCN(C)C3=O)on2)cc1-c1nc2c(N)ncnc2s1 [Example 12, (R)-3-(3-(3-(7-Aminothiazolo[5,4-d]pyrimidin-2-yl)-4-methylphenyl)isoxazol-5-yl)-3-hydroxy-1-methylpyrrolidin-2-one]	> 501 nM	< 100 nM
CN1CC[C@@](O)(c2cc(-c3cccc(-c4ccc5[nH]nc(N)c5n4)c3)on2)C1=O [Example 17, (R)-3-(5-(3-(3-Amino-1H-pyrazolo[4,3-b]pyridin-5-yl)phenyl)isoxazol-3-yl)-3-hydroxy-1-methylpyrrolidin-2-one]	> 501 nM	< 100 nM
Cc1ccc(-c2cccc(C(N)=O)n2)cc1-c1cc([C@]2(O)CCN(C)C2=O)on1 [Example 150, (R)-6-(3-(5-(3-Hydroxy-1-methyl-2-oxopyrrolidin-3-yl)isoxazol-3-yl)-4-methylphenyl)picolinamide]	> 501 nM	> 501 nM
[2H]C([2H])([2H])N1CC[C@@](O)(c2cc(-c3cccc(-c4cc(C5CC5)c(N)c(C(N)=O)n4)c3)no2)C1=O [Example 179, (R)-3-Amino-4-cyclopropyl-6-(3-(5-(3-hydroxy-1-(methyl-d3)-2-oxopyrrolidin-3-yl)isoxazol-3-yl)phenyl)picolinamide]	< 100 nM	< 100 nM
CN1CC[C@@](O)(c2cc(-c3cccc(-c4ncc(N)c(C(=O)N[C@@H]5CCOC5)n4)c3)no2)C1=O [Example 128, 5-Amino-2-(3-(5-((R)-3-hydroxy-1-methyl-2-oxopyrrolidin-3-yl)isoxazol-3-yl)phenyl)-N—((R)-tetrahydrofuran-3-yl)pyrimidine-4-carboxamide]	> 501 nM	< 100 nM
CN1CC[C@@](O)(c2cc(-c3cccc(-c4ccn5ncccc45)c3)no2)C1=O [Example 64, (R)-3-Hydroxy-1-methyl-3-(3-(3-(pyrrolo[1,2-b]pyridazin-5-yl)phenyl)isoxazol-5-yl)pyrrolidin-2-one]	> 501 nM	> 501 nM
COc1cc(-c2cccc(-c3cc([C@]4(O)CCN(C)C4=O)on3)c2)cc2c1cnn2C [Example 76, (R)-3-Hydroxy-3-(3-(3-(4-methoxy-1-methyl-1H-indazol-6-yl)phenyl)isoxazol-5-yl)-1-methylpyrrolidin-2-one]	> 501 nM	100 to 500 nM
Cc1ncc2cc(-c3cccc(-c4cc([C@]5(O)CCN(C)C5=O)on4)c3)ccn12 [Example 60, (R)-3-hydroxy-1-methyl-3-(3-(3-(3-methylimidazo[1,5-a]pyridin-7-yl)phenyl)isoxazol-5-yl)pyrrolidin-2-one]	> 501 nM	> 501 nM
CN1CC[C@@](O)(c2cc(-c3ccc(F)c(-c4ncc(NC5COC5)c(C(N)=O)n4)c3)no2)C1=O [Example 121, (R)-2-(2-Fluoro-5-(5-(3-hydroxy-1-methyl-2-oxopyrrolidin-3-yl)isoxazol-3-yl)phenyl)-5-(oxetan-3-ylamino)pyrimidine-4-carboxamide]	100 to 500 nM	< 100 nM
Cc1cn2cc(-c3cccc(-c4cc([C@]5(O)CCN(C)C5=O)on4)c3)ccc2n1 [Example 79, (R)-3-Hydroxy-1-methyl-3-(3-(3-(2-methylimidazo[1,2-a]pyridin-6-yl)phenyl)isoxazol-5-yl)pyrrolidin-2-one]	> 501 nM	> 501 nM
COc1nc(-c2cccc(-c3cc([C@]4(O)CCN(C)C4=O)on3)c2)nc(OC)c1N [Example 136, (R)-3-(3-(3-(5-Amino-4,6-dimethoxypyrimidin-2-yl)phenyl)isoxazol-5-yl)-3-hydroxy-1-methylpyrrolidin-2-one]	> 501 nM	100 to 500 nM
CN1CC(F)(F)[C@@](O)(c2cc(-c3ccc(F)c(-c4nc(C(N)=O)c5[nH]ccc5n4)c3)no2)C1=O [Example 140, (R)-2-(5-(5-(4,4-Difluoro-3-hydroxy-1-methyl-2-oxopyrrolidin-3-yl)isoxazol-3-yl)-2-fluorophenyl)-5H-pyrrolo[3,2-d]pyrimidine-4-carboxamide]	< 100 nM	< 100 nM
